Experimental data from patent US20040019092A1, “Non-peptide somatostatin receptor ligands” (priority 2001, published 2004).
Values joined by “and” are separate entries in the source; they are usually repeats but may differ in a detail not shown here. Equal values may be shown once.

Legend:
[1] = tested on: GHRH stimulated GH secretion; test: GH secretion in vivo, rat, intravenous infusion with repeated GHRH stimulation; conditions: for INFUS. + GHRH ID50 MEAN: Table 4, mean of infusion time points; for INFUS. + GHRH ID50 15′ / INFUS. + GHRH ID50 30′ / INFUS. + GHRH ID50 60′: Table 4, urethan; for GH vivo Inf + GHRH ID50 (mean of time points): urethane, i.v. infusion, GHRH stimulated
Description: (§1) Animals, anesthesia: Male rats of a Sprague Dawley strain (Ico:OFA-SD, Iffa-Credo, F-Lyon) of 200-300 g body weight were used. They were kept under standardized conditions and were anesthetized with pentobarbital-sodium (Siegfried, CH Zofingen), 60 mg/kg i.p. for subcutaneous and intraduodenal applications. Animals designed for an infusion experiment were anesthetized with urethane (Siegfried, CH Zofingen), 1.2 g/kg i.p.
(§2) Stock solutions of the compounds were prepared in water with the addition of the necessary adjunct(s). Further dilutions were prepared allowing 5 mL/kg for subcutaneous application, 2 mL for intraduodenal (i.d.) application or 4.5 mL/kg for intravenous infusion. The solutions for the intravenous application/infusion were made isotonic by addition of glucose to a final concentration of 5%.
(§3) Applications were made, or, in the case of infusion, started, approximately 10 minutes after induction of anesthesia. No further treatment followed subcutaneous or intraduodenal application. Ten, twenty-five and fifty-five minutes after start of the intravenous infusion the GH secretion was stimulated with repeated intravenous injections of the potent GHRH analog, D-Ala2 GHRH1-29NH2, 1 μg/kg.
(§4) One hour after subcutaneous or intraduodenal application of the compounds, blood was collected from the trunk after decapitation. In the case of application by infusion, 5 minutes after each application of GHRH, a blood sample of 0.8 mL was taken from a V. jugularis and mixed with EDTA (Eppendorf tubes TOM14, Milian, CH Geneva). The blood samples were kept on ice and spun in a cooled centrifuge. The serum or plasma was separated and frozen.
(§5) Statistics: In each experiment, 4-5 animals were used per dose, with 6 to 8 animals as the control group that received the vehicle. The GH serum/plasma levels were averaged, the mean of the treated groups expressed in percent of the control group and the ID50-value for the inhibition of the secretion was determined graphically (log-probit) for each experiment. In most experiments with enteral (intraduodenal) application only 1 dose, 10 mg/kg, was given. […] Only inhibitions between 20 and 80% were considered reliable.
(§6) Two to four experiments were performed. In the case of proper dose response curves, allowing the determination of an ID50 values were averaged logarithmically. In the cases of single dose-experiments, the GH value in percent of control were averaged logarithmically and the ID50 for this value was taken from the table. ID50 values determined at the different time points during the infusion were averaged and this value was included in the tables.

[2] = molecular target: T1, human sst2 receptor sub-type (Homo sapiens, UniProt P30874); test: In vitro binding, human sst2 receptor sub-type (SSTR2); conditions: Tables 8/9: Bind SSTR2 nM
T1 construct: host or cells: SRIF receptor expressing cell cultures (general statement only)
T1 sequence (P30874 whole entry): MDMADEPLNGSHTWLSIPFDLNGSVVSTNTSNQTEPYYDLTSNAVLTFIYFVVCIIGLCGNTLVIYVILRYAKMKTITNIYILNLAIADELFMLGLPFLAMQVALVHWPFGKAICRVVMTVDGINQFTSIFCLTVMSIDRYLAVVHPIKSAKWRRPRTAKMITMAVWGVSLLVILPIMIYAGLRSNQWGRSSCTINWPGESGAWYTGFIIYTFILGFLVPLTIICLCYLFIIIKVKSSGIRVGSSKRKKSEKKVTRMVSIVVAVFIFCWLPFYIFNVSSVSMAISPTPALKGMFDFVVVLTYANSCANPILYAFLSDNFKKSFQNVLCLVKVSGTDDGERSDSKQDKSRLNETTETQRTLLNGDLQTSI
Description: The in vitro binding affinities for rat cortex SRIF receptors and the human sst2 receptor sub-type was assessed. Further the in vitro inhibition of the GHRH induced GH secretion in primary cultures of rat pituitary cells as well as the in vivo inhibition of GH secretion in the rat after systemic or enteral application was studied. […] Therefore, the in vivo activities of the compounds in rats with respect to inhibition of growth hormone release was also assessed. Most compounds selected were tested by enteral—intraduodenal (i.d.) application. For determination of the absolute activity and for the calculation of an enteral bioavailability, single subcutaneous (s.c.) application of intravenous (i.v.) infusion was used.

GH secretion [3] = test: GH secretion in vivo, rat, subcutaneous application, 1 h (basal); conditions: rat, basal GH secretion, 1 h after subcutaneous application
Description: as §1
(§7) Compounds: The compounds were dissolved, optionally with the aid of one or more of the following adjuncts:
as §2, §3, §4, §5, §6

GH secretion [4] = test: GH secretion in vivo, rat, intraduodenal (enteral) application, 1 h (basal); conditions: for GH vivo i.d. 1 h ID50: basal GH secretion, 1 h after intraduodenal application, mostly approximate ID50 from single 10 mg/kg dose, Ø = no effect at this dose, > = extrapolated value
Description: as §1, §7, §2, §3, §4, §5, §6

[5] = tested on: GHRH stimulated GH secretion; test: GH secretion, rat in urethan anesthesia, intraduodenal + repeated GHRH stimulation; format: in vivo
Excerpt: No further treatment followed subcutaneous or intraduodenal application. […] This value has been determined in a total of four independent experiments. […] However, in further studies compound 47 has also been tested by the enteral route of administration after repeated stimulation of the GH secretion by GHRH. […] With most of these selected compounds additional in vivo experiments in other models (intraduodenal application followed by repeated stimulation of the GH secretion by GHRH, oral application by gavage of unanesthetized, estradiol primed rats) were performed. Table 4 summarizes data obtained for the inhibition of the stimulated GH secretion after subcutaneous, intraduodenal and intravenous application and the inhibitory effects obtained for different time points during intravenous infusion of selected hydantoins. […] [table]

[6] = tested on: GHRH induced GH secretion in primary cultures of rat pituitary cells; test: In vitro inhibition of GHRH induced GH secretion (GH vitro +GHRH); format: cell-based
[7] = tested on: GHRH stimulated GH secretion; test: GH secretion, rat in urethan anesthesia, subcutaneous + repeated GHRH stimulation; format: in vivo
Description: as §3
With most of these selected compounds additional in vivo experiments in other models (intraduodenal application followed by repeated stimulation of the GH secretion by GHRH, oral application by gavage of unanesthetized, estradiol primed rats) were performed. Table 4 summarizes data obtained for the inhibition of the stimulated GH secretion after subcutaneous, intraduodenal and intravenous application and the inhibitory effects obtained for different time points during intravenous infusion of selected hydantoins.

GH secretion [8] = test: Unanesthetized estradiol primed male rats, oral by gavage: GH; format: in vivo, rat; conditions: estradiol implant male rats, oral by gavage, 1 hour
Description: The inhibitory effect of the compounds on GH release may also be examined after oral application to male rats with oestradiol implants. This test is carried out as follows.
A loop (length 50 mmØ3 mm) of silastic with 50 mg of oestradiol is implanted under the dorsal skin of anaesthetized male OFA rats that have a weight of ca. 300 g. At various times (1 to 6 months later), these animals, in a fasted state, are used repeatedly for tests. The test substances are active in this test at doses from 0.1 to 5 mg/kg, when GH level in the blood serum is determined by radio-immunoassay 1 and 2 hours after oral administration.
(§8) Table 5 summarizes the results obtained in the estradiol primed male rats that received the compounds orally by gavage. These rats have stabilized elevated GH plasma levels as well as increased prolactin levels. In contrast to normal untreated rats, who's prolactin secretion is not sensitive to the inhibitory effect of somatostain, in these rats the prolactin secretion is inhibited to a similar degree as the GH secretion. Therefore, the inhibitory effect can be measured on 2 different parameters, GH and prolactin. The mean enteral absorption and activity of the respective compounds are shown.

prolactin secretion = test: Unanesthetized estradiol primed male rats, oral by gavage: prolactin; format: in vivo, rat; conditions: estradiol implant male rats, oral by gavage, 1 hour; ø = no effect at this dose
Excerpt: as §8

SS1 = SS1 (Rattus norvegicus, UniProt P30680); test: SS-1 binding (Bind SS1 D.H.)
Chain of SS1 (P30680 whole entry): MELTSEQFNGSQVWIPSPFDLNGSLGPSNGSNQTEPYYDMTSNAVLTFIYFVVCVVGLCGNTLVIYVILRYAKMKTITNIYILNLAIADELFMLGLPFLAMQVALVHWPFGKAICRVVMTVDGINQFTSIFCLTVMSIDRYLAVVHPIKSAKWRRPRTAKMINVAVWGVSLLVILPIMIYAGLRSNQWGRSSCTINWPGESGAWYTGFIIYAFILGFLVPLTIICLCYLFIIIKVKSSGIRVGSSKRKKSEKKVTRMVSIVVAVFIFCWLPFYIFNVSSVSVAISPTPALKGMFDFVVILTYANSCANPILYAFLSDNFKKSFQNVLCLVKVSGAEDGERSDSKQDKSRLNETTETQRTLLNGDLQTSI

Structure (SMILES): C[C@H](N)C(=O)NCC(=O)N[C@H]1CSSC[C@@H](C(=O)O)NC(=O)[C@H](CO)NC(=O)[C@H]([C@@H](C)O)NC(=O)[C@H](Cc2ccccc2)NC(=O)[C@H]([C@@H](C)O)NC(=O)[C@H](CCCCN)NC(=O)[C@H](Cc2c[nH]c3ccccc23)NC(=O)[C@H](Cc2ccccc2)NC(=O)[C@H](Cc2ccccc2)NC(=O)[C@H](CC(N)=O)NC(=O)[C@H](CCCCN)NC1=O [SRIF14, somatostatin 14, reference compound]
- INFUS. + GHRH ID50 MEAN [1]: 3.90 µg/kg
- INFUS. + GHRH ID50 15′ ([1]; 15′ of infusion): 6.00 µg/kg
- INFUS. + GHRH ID50 30′ ([1]; 30′ of infusion): 3.35 µg/kg
- INFUS. + GHRH ID50 60′ ([1]; 60′ of infusion): 2.90 µg/kg

Structure (SMILES): Cc1cccc2c(CC3C(=O)N(CCCCC(C)(C)N)C(=O)N3S(=O)(=O)c3ccc(Oc4ccc(O)c(Cl)c4)c(C(=O)N(C)C)c3)c[nH]c12 (centres unmarked) [Compound 47]
- IC50 [2]: 380 pM
- GH vivo s.c. 1 h ID50 (GH secretion [3]): 10.00 µg/kg
- GH vivo i.d. 1 h ID50 (GH secretion [4]): ˜454 μg/kg
- enteral ID50 (GH secretion) (GH secretion [4]; enteral (intraduodenal) application): 500 µg/kg
- enteral bioavailability (from ID50 ratio) (GH secretion [4]; intraduodenal 1 hour vs parenteral ID50): 1.8%
- GH vivo Inf + GHRH ID50 (mean of time points) [1]: 8.10 µg/kg/h
- bioavailability calculated in the GHRH stimulated enteral model [5]: 0.3%
- enteral ID50 after repeated stimulation of the GH secretion by GHRH ([5]; 1 hour): ~2600 µg/kg

Structure (SMILES): C[C@@H](O)[C@@H]1NC(=O)[C@H](CCCCN)NC(=O)[C@@H](Cc2c[nH]c3ccccc23)NC(=O)[C@H](Cc2ccccc2)NC(=O)[C@@H](NC(=O)[C@H](N)Cc2ccccc2)CSSC[C@@H](C(=O)N[C@H](CO)[C@@H](C)O)NC1=O [Octreotride, Octreotide, reference compound]
- IC50 [6]: 1300 pM
- GH vivo s.c. 1 h ID50 (GH secretion [3]): 0.13 µg/kg
- GH vivo i.d. 1 h ID50 (GH secretion [4]): 125 µg/kg
- INFUS. + GHRH ID50 MEAN [1]: 0.12 µg/kg
- INFUS. + GHRH ID50 15′ ([1]; 15′ of infusion): 0.16 µg/kg
- INFUS. + GHRH ID50 30′ ([1]; 30′ of infusion): 0.11 µg/kg
- INFUS. + GHRH ID50 60′ ([1]; 60′ of infusion): 0.10 µg/kg
- GH, Ur Inf15′ +GHRH ([1]; Tables 8/9, urethane, 15′ of infusion): 0.124 µg/kg/h
- GH, UR Inf30′ +GHRH ([1]; Tables 8/9, urethane, 30′ of infusion): 0.082 µg/kg/h
- GH, UR Inf60′ +GHRH ([1]; Tables 8/9, urethane, 60′ of infusion): 0.085 µg/kg/h
- GH vivo Inf + GHRH ID50 (mean of time points) ([1]; listed as Octreotride ac): 0.12 µg/kg/h and 0.096 µg/kg/h
- GH vivo Inf + GHRH ID50 (mean of time points) ([1]; listed as octreotride ac): 0.096 µg/kg/h
- SUBCUTANEOUS + GHRH ID50 15′ ([7]; 15′): 0.15 µg/kg
- SUBCUTANEOUS + GHRH ID50 30′ ([7]; 30′): 0.15 µg/kg
- SUBCUTANEOUS + GHRH ID50 60′ ([7]; 60′): 0.26 µg/kg
- INTRADUODENAL + GHRH ID50 15′ ([5]; urethan, 15′, ø = no effect at this dose): 24.2 µg/kg
- INTRADUODENAL + GHRH ID50 30′ ([5]; urethan, 30′): 16.6 µg/kg
- INTRADUODENAL + GHRH ID50 60′ ([5]; urethan, 60′): 26.8 µg/kg
- INTRADUODENAL + GHRH ID50 120′ ([5]; urethan, 120′, ø = no effect at this dose): 82.0 µg/kg
- GH 1 H ID50 (GH secretion [8]): 440 µg/kg
- MEAN ID50 (GH and prolactin) (GH secretion [8]): 663 µg/kg
- PROLACT 1 H ID50 (prolactin secretion): 998 µg/kg
- Bind SS1 D.H. (SS1): 0.30 nM
